Test results taken from patent publication US5578585A, “Pleuromutilin derivative complexes” (Biochemie Gesellschaft m.b.H., priority 1991, dated 1996).

Assays:
[1] = test system: gram-positive and gram-negative bacteria; settings: many gram-positive and gram-negative bacteria; free base, acid addition or quaternary salt form; cited from earlier work
[2] = Phase-solubility diagram (inclusion compound type, complex binding constant) with γ-cyclodextrin; assay type: physicochemical; settings: compound of formula I in the form of the base
Excerpt: (§1) Based on the phase-solubility diagram (see "Methods of investigating and preparing inclusion compounds and their industrial uses" in D. Duchene, "Cyclodextrins and their Industrial Uses", Editions de Sante [1987]), the following types of inclusion compounds are obtained with the compound of formula I in the form of the base and […]

[3] = Stability in conventional complete feed mixtures (general statement); assay type: physicochemical
[4] = Phase-solubility diagram (inclusion compound type, complex binding constant) with β-cyclodextrin; assay type: physicochemical; settings: compound of formula I in the form of the base; with cyclodextrin (printed without Greek letter)
Excerpt: as §1

[5] = Feed stability: optimum ratio of compound of formula I to β-cyclodextrin; assay type: physicochemical; settings: feed mixtures, ratio to β-cyclodextrin varied
Description: (§2) As model feed a ready feed for piglets of the following composition is used:
Various forms of the preparation are mixed with the ready feed in a concentration of 200 ppm of compound of formula I and stored for several weeks at 30°. […]
For determination of the optimum ratio of compound of formula I to cyclodextrin, investigations are carried out using various concentrations of cyclodextrin. Results as regards stability in feed mixtures are summarized in Table 2 [in the first column "ratio" means the ratio of compound of formula I (hydrochloride) to β-cyclodextrin]: […]

[6] = Feed stability: storage in ready piglet feed, content by HPLC; assay type: physicochemical; settings: feed mixture, 200 ppm, 30°
Description: as §2
Various forms of the preparation are mixed with the ready feed in a concentration of 200 ppm of compound of formula I and stored for several weeks at 30°. Both the starting value of the fresh mixtures and the content values after storage for 2, 4 and 8 weeks are analysed by high pressure liquid chromatography (HPLC).

[7] = Oral absorption in pigs, plasma concentration by microbiological analysis; assay type: in vivo; settings: pig, 25 mg/kg body weight, pure compound in drinking water
Description: (§3) Absorption following administration to rats and pigs of 25 mg/kg body weight of a preparation according to Example 3 is tested and compared with pure compound of formula I (hydrochloride) in the drinking water. Blood samples are taken after a period of 24 hours and the concentration of active substance in plasma determined by microbiological analysis. The results in Table 3 show the absorption of the compound of formula I when administered in the form of a complex of the invention: […]

[8] = Oral absorption in rats, plasma concentration by microbiological analysis; assay type: in vivo; settings: rat, 25 mg/kg body weight, pure compound in drinking water
Description: as §3

[9] = read-out: AUC (area under curve)
[10] = read-out: Cmax (maximum plasma concentration)

| SMILES | antibacterial effectiveness [1] | type of inclusion compound (phase-solubility diagram) [2] | breakdown by constituents of conventional complete feed mixtures [3] | type of inclusion compound (phase-solubility diagram) [4] | Content after 1 month ([5]; after 1 month, 43800 min) [%] | Content after 2 months ([5]; after 2 months, 87600 min) [%] | Content after 3 months ([5]; after 3 months, 131400 min) [%] | Content, initial value ([5]; initial value) [%] | Content after 2 weeks ([6]; after 2 weeks, 20160 min) [%] | Content after 4 weeks ([6]; after 4 weeks, 40320 min) [%] | Content after 8 weeks ([6]; after 8 weeks, 80640 min) [%] | Content, initial value ([6]; initial value) [%] | AUC [7, 9] [ng·h/mL] | Cmax [7, 10] [ng/mL] | AUC [8, 9] [ng·h/mL] | Cmax [8, 10] [ng/mL] |
| --- | --- | --- | --- | --- | --- | --- | --- | --- | --- | --- | --- | --- | --- | --- | --- | --- |
| C=C[C@]1(C)C[C@@H](OC(=O)CSC(C)(C)CNC(=O)[C@H](N)C(C)C)[C@]2(C)[C@H](C)CC[C@]3(CCC(=O)[C@H]32)[C@@H](C)[C@@H]1O [compound of formula I, 14-O-[1-((D)-2-amino-3-methylbutyrylamino)-2-methylpropan-2-ylthioacetyl]mutilin] | highly effective | type BS | broken down very rapidly | type AL |  |  |  |  |  |  |  |  |  |  |  |  |
| C=C[C@]1(C)C[C@@H](OC(=O)CSC(C)(C)CNC(=O)[C@H](N)C(C)C)[C@]2(C)[C@H](C)CC[C@]3(CCC(=O)[C@H]32)[C@@H](C)[C@@H]1O [14-O-[1-((D)-2-amino-3-methylbutyrylamino)-2-methylpropan-2-ylthioacetyl]mutilin] |  |  |  |  | 9 | 9 | 7 | 100 | 15 | 8 | 6 | 100 | 21400 | 1200 | 139000 | 8600 |
